# Experimental data reported in patent publication US10501493B2, “Broad spectrum antibiotics” (priority 2011, dated 2019).
# pIC50: −log10 of the molar value. Like-named read-outs stand apart in the source and are kept apart here.
# Key:
# S. epidermidis RP62A = assay: In vitro antimicrobial activity, MIC by broth micro-dilution; format: cell-based; conditions: for MIC: Staphylococcus epidermidis, RP62A, read-out: MIC class, S. epidermidis RP62A
# Description: (§1) In vitro antimicrobial activity of each compound was determined by measuring minimal inhibitor concentrations (MICs) using the broth micro-dilution technique as approved by the Clinical and Laboratory Standards Institute (CLSI). The microbiological panel examined contains a number of bacterial species including E. coli MG1655, P. aeruginosa, S. aureus, and S. epidermidis. In addition, the panel includes previously described pseudo-isogenic strains of these four species (P. A. Smith et al. Chem Biol 2010, 1223-1231), in which a specific proline residue in SPase (called LepB in Gram-negative organisms an SpsB in Gram-positive organisms) has been mutated to a different amino acid. The resulting strains have increased susceptibility to the arylomycin class of antibiotics. Analysis of the strains lacking this proline residue will increases the dynamic range of the assay, and comparison of the sensitivities of the isogenic pairs provides ongoing confirmation that the activity gained through derivatization is specific to the inhibition of SPase. Briefly, bacterial streaks were grown on Mueller Hinton Agar II (Difco™) with or without 5% lysed horse blood for a period of 24 hours at either 35° C. or 28° C. Bacterial colonies were suspended in cation adjusted Mueller Hinton broth and diluted to a final concentration of 1*10^7 colony forming units/ml. Two-fold serial dilutions of each compound were arrayed into 96-well plates (100 μl final volume per well) and 5 ul of the bacterial suspension will be added. […] MICs were periodically checked plating serial dilutions of MIC wells and quantitatively determining viable colonies.
# E. coli ATCC 25922 = assay: as above; format: cell-based
# Description: as §1
# S. pneumoniae D39 = assay: as above; format: cell-based; conditions: for MIC: Streptococcus pneumoniae, D39, read-out: MIC class, S. pneumoniae D39
# Description: as §1
# [1] = test system: S. aureus NCTC-8325 SpsB(P295); assay: as above; format: cell-based; conditions: for MIC: Staphylococcus aureus, NCTC8325, read-out: MIC class, S. aureus NCTC-8325 SpsB(P295)
# Description: as §1
# S. aurues NCTC-8325 = assay: as above; format: cell-based, S. aureus; conditions: for MIC: Staphylococcus aureus, NCTC8325, read-out: MIC class, S. aurues NCTC-8325
# Description: as §1
# [2] = test system: E. col ATCC 25922 LepB(P84L); assay: as above; format: cell-based, E. coli; conditions: for MIC: Escherichia coli, ATCC25922, read-out: MIC class, E. col ATCC 25922 LepB(P84L)
# Description: as §1
# E. coli SPase = target: T1, E. coli SPase (Escherichia coli, UniProt P00803); assay: Enzymatic fluorogenic substrate cleavage assay for IC50; format: biochemical
# T1 construct: Full length His-tagged E. coli SPase proteins were expressed in E. coli BL21(DE3); His-tag; made in house; host or cells: E. coli BL21(DE3)
# Description: (§2) Full length His-tagged E. coli SPase proteins were expressed in E. coli BL21(DE3) containing the plasmid pET23-lepB, P. A. Smith et al. Chem Biol 2010, 1223-1231. Briefly, saturated overnight cultures grown in 20 ml of Luria-Bertani medium supplemented with ampicillin were subcultures into 1.5 L of Luria-Bertani, and shaken at 37° C. until an optical density at 600 nm of 0.4-0.5 was achieved. Protein expression was induced with Isopropyl β-D-1-thiogalactopyranoside (ITPG) at a final concentration of […], and purified using nickel affinity chromatography. Full length His-tagged S. aureus SPase protein was expressed similarly from E. coli BL21(DE3) containing the plasmid pCDF1-SaSpsB or pCDF1-SaSpsB(P29S) and purified similarly to the E. coli protein with the following exceptions. SPase protein was solubilized using 300 mM NaCl, 20 mM Tris pH 8.06, 5 mM Imidazole, 10% glycerol, 1% Triton X-100, prior to purification in Ni-NTA Superflow resin and resin bound protein was washed in a similar buffer containing 1% Elugent in place of Triton X-100 prior to protein eluted in wash buffer supplemented with 300 mM imidazole. Protein purify was judged to exceed 95% by visual inspection of SDS-PAGE followed by Comassie staining. All protein concentrations were determined by BCA assay.
# (§3) In addition to the equilibrium binding assays, compound activity is also characterized by measuring inhibition of E. coli and S. aureus substrate cleavage reactions using fluorogenic peptides developed at RQx Pharmaceuticals. Briefly, two fluorogenic peptide substrates (decanoyl-LSSPA Y^NO2 A ? ADK^abzPD (SEQ ID NO: 1) and decanyol-LTPTAY^NO2 A ? ASKK^abzDD (SEQ ID NO: 2)) have been synthesized, where abz is the fluorescence donor 2-aminobenzamide, YNO2 is the fluorescence acceptor 3-nitrotyrosine, and the cleavage site is indicated with an arrow. These substrates are processed with a second order rate constant (Kcat/KM) of 10^5 M^−1s^−1 for E. coli and S. aureus SPase enzymes, and cleavage results in a greater than 10-fold increase in fluorescence signal (excitation at 314 nm, emission at 416 nm) as measured using a SpectraMax M2 fluorescence microplate reader. Two-folder serial dilutions of compound are prepared in cleavage reaction buffer consisting of: 50 mM Tris-HCl pH 8.0, 100 mM NaCl, 10% glycerol, 1 mM EDTA, detergent (1% NP-40 or 0.1% Elugent™ for E. coli LepB or S. aureus SpsB respectively) and either 2.5 nM of E. coli SPase enzyme or 10 nM of S. aureus SPase enzyme. 40 μl aliquots of the compound dilution series in the protein/buffer solution is transferred to black 384-well polypropylene plates, and 10 μl of fluorogenic peptide at a concentration of 100 μM is added to initiate the reaction. The increase in fluorescence, corresponding to substrate cleavage, is monitored continuously at room temperature for 30 minutes and initial reaction rates are calculated based in the linear increase in fluorescence from the initial 30 minutes of the reaction. Reaction rates are plotted as a function of compound concentration, and IC50 values are determined nonlinear regression analysis (SoftMax® Pro v5.4) of the sigmoidal dose-response curve.
# S. aureus SPase = target: T2, S. aureus SPase (Staphylococcus aureus, UniProt P0A070); assay: as above; format: biochemical
# T2 construct: Full length His-tagged S. aureus SPase protein was expressed similarly; His-tag; made in house; host or cells: E. coli BL21(DE3)
# Description: as §2, §3
# [3] = Escherichia coli, ATCC25922; read-out: MIC class, E. coli ATCC 25922
# [4] = fluorogenic peptide cleavage, read-out: IC50 class E. coli SPase
# [5] = fluorogenic peptide cleavage, read-out: IC50 class S. aureus SPase
SMILES,MIC (S. epidermidis RP62A) [µg/mL],MIC (E. coli ATCC 25922; [3]) [µg/mL],MIC (S. pneumoniae D39) [µg/mL],MIC [1] [µg/mL],MIC (S. aurues NCTC-8325) [µg/mL],MIC [2] [µg/mL],pIC50 (E. coli SPase),pIC50 (S. aureus SPase),"MIC class, S. epidermidis RP62A (S. epidermidis RP62A)","MIC class, E. coli ATCC 25922 (E. coli ATCC 25922; E. coli ATCC 25922)","MIC class, S. pneumoniae D39 (S. pneumoniae D39)","MIC class, S. aureus NCTC-8325 SpsB(P295) [1]","MIC class, S. aurues NCTC-8325 (S. aurues NCTC-8325)","MIC class, E. col ATCC 25922 LepB(P84L) [2]",pIC50 (E. coli SPase; [4]),pIC50 (S. aureus SPase; [5]),"MIC (E. coli ATCC 25922; Escherichia coli, ATCC25922, read-out: MIC class, E. coli ATCC 25922) [µg/mL]"
CCCCCCCCCCCCCCCC(=O)N(C)[C@H](CO)C(=O)N[C@H](C)C(=O)NCC(=O)N(C)[C@@H]1C(=O)N[C@@H](C)C(=O)N[C@H](C(=O)N[C@@H](CO)C(C)C)Cc2ccc(O)c(c2)-c2cc1ccc2O [Compound 66],16 to 64,> 64,16 to 64,> 64,> 64,16 to 64,5.00 to 6.00,< 5.00,–,–,–,–,–,–,–,–,–
CCCCCCCCCCCCCCCC(=O)N(C)[C@H](CO)C(=O)N[C@H](C)C(=O)NCC(=O)N(C)[C@@H]1C(=O)N[C@@H](C)C(=O)N[C@H](C(=O)NCC(O)C(=O)OC)Cc2ccc(O)c(c2)-c2cc1ccc2O (stereo partly shown) [Compound 75],< 8,> 64,< 8,> 64,> 64,< 8,> 6.00,< 5.00,–,–,–,–,–,–,–,–,–
CCCCCCCCCCC(=O)N(C)[C@H](CO)C(=O)N[C@H](C)C(=O)NCC(=O)N(C)[C@@H]1C(=O)N[C@@H](C)C(=O)N[C@H](C(=O)O)Cc2ccc(O)c(c2)-c2cc1ccc2O [Compound 85],< 8,> 64,> 64,> 64,> 64,16 to 64,> 6.00,5.00 to 6.00,–,–,–,–,–,–,–,–,–
CCCCCCCCCCCCCCCC(=O)N(C)[C@H](CO)C(=O)N[C@H](C)C(=O)NCC(=O)N(C)[C@@H]1C(=O)N[C@@H](C)C(=O)N[C@H](C(=O)NCC=O)CCCc2ccc(O)c(c2)-c2cc1ccc2O [Compound 94],–,–,–,–,–,–,–,–,c (MIC ≤8 μg/ml),a (MIC >64 μg/ml),b (MIC 16-64 μg/ml),a (MIC >64 μg/ml),a (MIC >64 μg/ml),a (MIC >64 μg/ml),> 6.00,> 6.00,–
CCCCCCCCCCCCCCCC(=O)N(C)C(CO)C(=O)N[C@H](C)C(=O)NCC(=O)N(C)[C@@H]1C(=O)N[C@@H](C)C(=O)NC(C(=O)NCC(O)CO)Cc2ccc(O)c(c2)-c2cc1ccc2O (stereo partly shown) [Compound 62],> 64,> 64,16 to 64,> 64,> 64,16 to 64,5.00 to 6.00,< 5.00,–,–,–,–,–,–,–,–,–
CCCCCCCCCCCCCCCC(=O)N(C)[C@H](CO)C(=O)N[C@H](C)C(=O)NCC(=O)N(C)[C@@H]1C(=O)N[C@@H](C)C(=O)N[C@H](C(=O)N[C@H](C)CO)Cc2ccc(O)c(c2)-c2cc1ccc2O [Compound 63],16 to 64,> 64,16 to 64,> 64,> 64,> 64,< 5.00,< 5.00,–,–,–,–,–,–,–,–,–
CCCCCCCCCCCCCCCC(=O)N(C)[C@H](CO)C(=O)N[C@H](C)C(=O)NCC(=O)N(C)[C@@H]1C(=O)N[C@@H](C)C(=O)N[C@H](C(=O)NCCOC)Cc2ccc(O)c(c2)-c2cc1ccc2O [Compound 61],> 64,> 64,< 8,> 64,> 64,16 to 64,5.00 to 6.00,< 5.00,–,–,–,–,–,–,–,–,–
CCCCCCCCCCCCCCCC(=O)N(C)[C@H](CO)C(=O)N[C@H](C)C(=O)NCC(=O)N(C)[C@@H]1C(=O)N[C@@H](C)C(=O)N[C@H](C(=O)N[C@H](CO)Cc2c[nH]c3ccccc23)Cc2ccc(O)c(c2)-c2cc1ccc2O [Compound 74],> 64,> 64,16 to 64,> 64,> 64,> 64,5.00 to 6.00,< 5.00,–,–,–,–,–,–,–,–,–
CCCCCCCCCCCCCCCC(=O)N(C)[C@H](CO)C(=O)N[C@H](C)C(=O)NCC(=O)N(C)[C@@H]1C(=O)N[C@@H](C)C(=O)N[C@H](C(=O)O)Cc2ccc(OC)c(c2)-c2cc1ccc2OC [Compound 77],> 64,–,16 to 64,16 to 64,> 64,< 8,< 5.00,5.00 to 6.00,–,–,–,–,–,–,–,–,> 64
CCCCCCCCCCCCCCCC(=O)N(C)[C@H](CO)C(=O)N[C@H](C)C(=O)NCC(=O)N(C)[C@@H]1C(=O)N[C@@H](C)C(=O)N[C@H](C(=O)NC(CO)(CO)CO)Cc2ccc(O)c(c2)-c2cc1ccc2O [Compound 70],< 8,> 64,16 to 64,> 64,> 64,< 8,> 6.00,< 5.00,–,–,–,–,–,–,–,–,–
CCCCCCCCCCCCCCCC(=O)N(C)[C@H](CO)C(=O)N[C@H](C)C(=O)NCC(=O)N(C)[C@@H]1C(=O)N[C@@H](C)C(=O)N[C@H](C(=O)O)CCCc2ccc(O)c(c2)-c2cc1ccc2O [Compound 83],–,–,–,–,–,–,–,–,c (MIC ≤8 μg/ml),a (MIC >64 μg/ml),c (MIC ≤8 μg/ml),b (MIC 16-64 μg/ml),a (MIC >64 μg/ml),c (MIC ≤8 μg/ml),5.00 to 6.00,> 6.00,–
